Measured values as given in US20240156846A1, “COMPOSITIONS AND METHODS FOR TREATING NEURODEGENERATIVE DISORDERS” (Arizona Board of Regents on Behalf of the University of …, priority 2020, published 2024).
“Also recorded” adds a separate entry of the source.

What was measured:
[1] = system: myrosinase; details: cited from earlier work
[2] = system: primary cultures of human neurons exposed to Aβ1-42 aggregates; experiment: Prevention of neuronal loss caused by Aβ1-42 aggregates (MTT assay); assay type: cell-based; details: compounds at 0 h, 24 h, 48 h; 1 μM Aβ1-42 aggregates at 24 h; MTT at 72 h
Procedure: Next, we determined whether these compounds, administered independently or formulated in combination, could protect primary cultures of human neurons against neurotoxic effects of Aβ1-42 aggregates, an in vitro condition relevant to AD pathology. We evaluated both prevention and rescue of neuronal death by NADH, NAD+ and PEITC (FIG. 7). In both experiments, the cultured human neurons were exposed to 1 nM, 10 nM, 100 nM, 1 μM, 10 μM, 20 μM, 40 μM, 50 μM, 75 μM, and 100 μM of each compound, either individually or in equimolar combinations. […] In the prevention experiment, cultures were exposed to fresh compounds every 24 h over the 48 h timeline of this experiment (i.e., 0 h, 24 h, and 48 h) to resemble a pharmacological regimen of once daily dosing. At 24 h, we added 1 μM of Aβ1-42 aggregates to the cell culture media and measured cell viability at 72 h using the MTT assay (Online Method, FIG. 7A). […] In the rescue experiments, primary cultures of human neurons were exposed to 1 μM of Aβ1-42 aggregates at 0 h for a period of 48 h to model existing cellular damage under conditions relevant to AD. After 24 h incubation with Aβ1-42, we added NADH, NAD+, PEITC, NADH/PEITC, and NAD+/PEITC directly to the culture media containing Aβ1-42 and incubated the cultured human neurons for an additional 24 h when cell viability was measured using our MTT assay.
To determine the optimal dosage of the two formulations for neuronal rescue and microglial phagocytosis stimulation, we treated the primary cultures of human neurons and primary cultures of human microglia in the prevention settings respectively with exhaustive combination of individual dosage of 10 μM, 20 μM, 40 μM, 50 μM, 75 μM, and 100 μM.

[3] = system: 3xTg AD mice; experiment: Treatment of 3xTg AD mice: brain Aβ, tau and proteomics; assay type: in vivo, mouse; details: for levels of neurotoxic Aβ42 / ratio of Aβ42 to Aβ40: 3xTg AD mice treated with individual compound; for ratio of p231-tau to total tau: 3xTg mice treated with individual compound
[4] = system: primary cultures of human microglia exposed to Aβ1-42 aggregates; experiment: Aβ1-42 uptake (phagocytosis) by microglia, rescue setting; assay type: cell-based; details: 10 dosages tested
From the text: There is considerable interest in microglia-targeted therapies for AD, in part due to the phagocytotic functionality of these cells that can promote neuronal recovery and/or repair. Indeed, phagocytosis of insoluble Aβ by microglia can facilitate CNS clearance of Aβ aggregates and limit formation of amyloid plaques (Ronaldson & Davis, 2020). Indeed, Aβ can bind to receptors at the microglial cell surface, an event that can trigger release of proinflammatory cytokines such as TNF-α and IL-1β, factors that are known to cause neuronal damage (Wang et al. 2015). Additionally, Jiang and colleagues discovered that triggering receptor expressed in myeloid cells 1 (TREM1) can promote Aβ phagocytosis by microglia (Jiang et al. 2016). […] To determine if the natural compounds individually or in combination could promote phagocytosis in microglia, we designed prevention and rescue experiments to measure Aβ1-42 uptake in primary cultures of human microglia via intracellular fluorescence (Online method). […] After 24 h, we added 1 μM of Aβ1-42 aggregates to the treated media and measured cell viability at 72 h using the Aβ uptake assay (Online Method, FIG. 8A). […] Uptake of Aβ1-42 was then measured 24 h later (i.e., at the 48 h experimental time point, FIG. 8B).

[5] = rat, in vivo, cited from earlier work
[6] = system: humanized-Tau (hTau) mice; experiment: Treatment of humanized-Tau (hTau) mice: brain p231Tau; assay type: in vivo, mouse
[7] = human subjects, after the consumption of 100 g watercress; cited from earlier work
[8] = cited from earlier work

Compound: O=S(=O)(O)ON=C(Cc1ccccc1)SC1OC(CO)C(O)C(O)C1F (stereo not drawn) [2-F-2-deoxybenzylglucosinolate]
- inhibition of myrosinase [1]: inhibits the enzyme by trapping one of the glutamic acid residues in the active site, Glu 409

Compound: NC(=O)c1ccc[n+]([C@@H]2O[C@H](COP(=O)([O-])OP(=O)(O)OC[C@H]3O[C@@H](n4cnc5c(N)ncnc54)[C@H](O)[C@@H]3O)[C@@H](O)[C@H]2O)c1 [NAD+, oxidized nicotinamide adenine dinucleotide]
- prevention of neuronal loss as compared to the negative control condition [2]: significantly prevented neuronal loss
- levels of neurotoxic Aβ42 [3]: significant reduction
- ratio of Aβ42 to Aβ40 [3]: significantly reduced; also recorded: significant reduction
- ratio of p231-tau to total tau [3]: significantly reduced
- number of dosages that significantly rescued microglial phagocytosis of Aβ1-42 [4]: eight

Compound: NC(=O)C1=CN([C@@H]2O[C@H](COP(=O)(O)OP(=O)(O)OC[C@H]3O[C@@H](n4cnc5c(N)ncnc54)[C@H](O)[C@@H]3O)[C@@H](O)[C@H]2O)C=CC1 [NADH, reduced nicotinamide adenine dinucleotide]
- prevention of neuronal loss as compared to the negative control condition [2]: significantly prevented neuronal loss
- levels of neurotoxic Aβ42 [3]: significant reduction
- ratio of Aβ42 to Aβ40 [3]: significantly reduced; also recorded: significant reduction
- ratio of p231-tau to total tau [3]: significantly reduced
- number of dosages that significantly rescued microglial phagocytosis of Aβ1-42 [4]: three

Compound: S=C=NCCc1ccccc1 [PEITC, phenethyl isothiocyanate]
- prevention of neuronal loss as compared to the negative control condition [2]: significantly prevented neuronal loss
- bioavailability ([5]; po): 90-114%
- clearance ([5]; po): low
- protein binding ([5]; po): high
- bioavailability with repeated dosing [5]: Increased
- levels of neurotoxic Aβ42 [3]: significant reduction
- ratio of Aβ42 to Aβ40 [3]: significantly reduced; also recorded: significant reduction
- ratio of p231-tau to total tau [3]: significantly reduced
- level of hyperphosphorylated Tau (p231Tau) [6]: significant reduction
- ratio of p231Tau to Tau [6]: significant reduction
- peak plasma concentration [7]: about 928.5±250 nM

Compound: O=S(=O)(O)O [Sulfate]
- inhibition of myrosinase [1]: competitive inhibitor

Compound: CN1C(=N)N[C@](C)(c2cc(NC(=O)c3ccc(F)cn3)ccc2F)CS1(=O)=O [Verubecestat]
- CSF Aβ levels ([8]; patients with AD / early-stage AD): decrease CSF Aβ levels

Compound: C[C@@]1(c2cc(NC(=O)c3ccc(C#N)cn3)ccc2F)C=CSC(N)=N1 [atabecestat]
- cognitive assessment scores in treated patients ([8]; phase two clinical trials and long-term safety and tolerability study): trend of worsening cognitive assessment scores

Compound: CC(C)[C@H](O)C(=O)N[C@@H](C)C(=O)N[C@@H]1C(=O)N(C)CCc2ccccc21 [semagacestat]
- functional or cognitive ability in treated patients ([8]; phase three trial): lack of efficacy and a worsening of function and cognition

Compound: OC[C@H]1O[C@@](CO)(O[C@H]2O[C@H](CO)[C@@H](O)[C@H](O)[C@H]2O)[C@@H](O)[C@@H]1O [sucrose, reference compound]
- prevention of neuronal loss as compared to the negative control condition [2]: did not prevent any neuronal death
